Values quoted from earlier work as cited in patent publication US20130338098A1, “Topical Analgesic Compositions Containing Aliphatic Polyamines and Methods of Using Same” (Dermal Therapy (Barbados) Inc., priority 2000, published 2013).

Conditions: orally, intravenously, intraperitoneally, and intramuscularly

NCCCCN [putrescine, 1,4-diaminobutane]
Toxicity: very low toxicity
